Measured values from paper PMC10664145, “Urinary Excretion of Mercapturic Acids of the Rodent Carcinogen Methyleugenol after a Single Meal of Basil Pesto: A Controlled Exposure Study in Humans” (Chemical Research in Toxicology, 2023).
“And” between values parts separate entries of the source, which are not always exact repeats. Equal values may be shown once.

Legend:
[1] = design: method as in PMID 22445790; conditions: cited from earlier work
SULT1A1 = test system: SULT1A1; design: method as in PMID 22337896; conditions: cited from earlier work
[2] = range over 12 experimental settings; ME 100, 200 or 500 μM; calculated from published data, molar units; cited from earlier work
[3] = range over five models (male and female Sprague–Dawley and Fischer 344 rats, pooled human); cited from earlier work
DNA [4] = conditions: cited from earlier work
[5] = cited from earlier work; for urinary metabolite of ME, share of the dose / urinary metabolite of ME in urine treated with glucuronidase/sulfatase, share of the dose: rat urine 24 h after oral ME 200 mg/kg
human topoisomerase I = test system: human topoisomerase I; design: method as in PMID 26542539; conditions: cited from earlier work
[6] = design: method as in PMID 22610610, PMID 22445790; conditions: calculated from published data; cited from earlier work
[7] = Controlled exposure study in humans: urinary excretion of E-3′-MEMA after a meal with 100 g basil pesto (1.7 mg ME), isotope-dilution LC–MS/MS; assay type: in vivo, human
Procedure: Based on the findings of the pilot investigation, a more comprehensive (“main”) exposure study was performed. The study was conducted according to the guidelines of the Declaration of Helsinki and was approved by the ethics committee of the University of Potsdam under application number 4/2019. It was carried out at the Institute of Nutritional Science (University of Potsdam), where 12 healthy volunteers (six men and six women) with conventional nutrition habits were recruited. All participants gave written informed consent. The mean age of the test group was 31.6 ± 4.6 years (range: 25–42 years), and the mean body weight was 76.4 ± 10.0 kg (range: 61–94 kg). To guarantee that urinary excretion of MEMA was solely attributed to the consumption of the basil pesto served, all volunteers were asked to avoid ME-containing food 2 days before and after the consumption of the study meal. Therefore, they received an information sheet specifying potential ME sources. After overnight fasting, the participants consumed a meal comprising 100 g of self-made pesto containing 30 g of basil (equal to 1.7 mg of ME; recipe see Table S2) and 200 g of pasta. No further restrictions were exerted. To ensure proper urine sampling, the volunteers were encouraged to drink beverages as they preferred. Urine was collected quantitatively in capped polyethylene containers prior to the controlled exposure and during the following intervals: 0–1, 1–2, 2–3, 3–4, 4–5, 5–6, 6–8, 8–10, 10–12, 12–24, 24–36, and 36–48 h. After the volumes were measured, the urine was aliquoted in two 15 mL reaction tubes per time interval and stored at −20 °C until analysis.
“System 2” was configured as follows: an HPLC 1100 (Agilent Technologies) was connected to a QTrap6500 triple quadrupole-hybrid ion trap mass spectrometer (Sciex, Darmstadt, Germany) equipped with an electrospray ionization source operating in negative mode. The chromatographic separation of the analytes was performed by ion pair chromatography on a Nucleoshell RP 18plus column (2.0 × 150 mm, 2.7 μm; Macherey-Nagel). The eluents were water containing 10 mM tributylamine and 10 mM acetic acid (eluent A) and acetonitrile (eluent B). The flow rate of the gradient (0 → 1 min: 2% eluent B; 1 → 8 min: 2 → 15% eluent B; 8 → 17.5 min: 15 → 35% eluent B; 17.5 → 18 min: 35 → 100% eluent B; 18 → 20 min: 100% eluent B; 20 → 20.1 min: 100 → 2% eluent B; 20.1 → 23 min: 2% eluent B) was 0.5 mL/min. […] The MRM mode was employed for quantitative analysis with the declustering potential and the entrance potential at −30 and −10 V, respectively. For the quantifier mass transitions of E-3′-MEMA (m/z 338.1 → 209.1) and d6-E-3′-MEMA (m/z 344.1 → 215.1), a collision energy of −20 V and a cell exit potential of −5 V were used. […]

[8] = rat, in vivo
Procedure: The metabolism of ME and its isomer, MIE, was also studied in rats in vivo.[27] Urine collected over a period of 24 h after oral administration of ME (200 mg/kg) contained a total of ten metabolites (each accounting for ≥1% of the dose); together, they represented 95% of the dose. Among the microsomal metabolites described in the preceding sections, only 6-hydroxy-ME was detected in native urine (2% of the dose). In human liver microsomes, it contributed 0–3.4% to the metabolism of ME, less than that in liver microsomes from other species [calculated from data published by Cartus et al.[11] and Al-Subeihi et al.[26]]. For this reason, and as 6-hydroxy-ME is not involved in bioactivation, it is not suited as a biomarker. Eugenol and chavibetol were found in urine treated with glucuronidase/sulfatase at levels of 7 and 4% of the dose, respectively. Obviously, these metabolites are not suited as biomarkers for exposure to ME, as they may also be found after exposure to eugenol and chavibetol. […] Although in this study, 95% of the dose of ME was recovered as metabolites in urine, metabolites were additionally detected in bile. […] Glutathione (GSH) conjugates and other metabolites of the mercapturic acid pathways were not detected in that study; however, the method used (extraction of the acidified urine or bile with ether followed by gas chromatography) was not suitable for their detection.

[9] = human, in vivo; cited from earlier work
human CYPs = conditions: cited from earlier work
[10] = test system: primary cultures of rat hepatocytes; conditions: cited from earlier work
DNA [11] = conditions: cited from earlier work; remark: listed apart in the source
[12] = n = 1; cited from earlier work

SMILES: C=CC(O)c1ccc(OC)c(OC)c1 (stereo not drawn) [1′-hydroxy-ME]
- catalytic efficiency of glucuronidation, factor lower in human than in male rat liver microsomes [1]: 125 times
- efficiency of human SULT1A1 in activation to a mutagen relative to its mouse orthologue (SULT1A1): about 3 times
- contribution of the metabolite to the metabolism of ME (sum of all metabolites) [2]: 36.4–69.4%
- contribution of the metabolite to ME metabolism calculated from Vmax values [3]: 36.2–50.1%
- DNA adduct levels in mice carrying a human SULT1A1–1A2 transgene compared to wild-type mice (DNA [4]): nine times higher
- potency in induction of hepatomas and formation of DNA adducts in mouse liver, compared with ME (DNA [4]): more potent than ME

SMILES: COc1ccc(CC(O)C(=O)O)cc1OC (stereo not drawn) [2-hydroxy-3-(3,4-dimethoxyphenyl)propionic acid]
- urinary metabolite of ME, share of the dose [5]: 20 % of the dose

SMILES: COc1ccc(CC(O)CO)cc1OC (stereo not drawn) [2′,3′-dihydroxy-2′,3′-dihydro-ME]
- contribution of the metabolite to ME metabolism calculated from Vmax values [3]: 21.8–44.0%

SMILES: Cc1ccc(CC(=O)O)cc1C [3,4-Dimethylphenylacetic acid]
- urinary metabolite of ME, share of the dose [5]: 3 % of the dose

SMILES: COc1ccc(C(=O)O)cc1OC [3,4-dimethoxybenzoic acid]
- urinary metabolite of ME, share of the dose [5]: 2 % of the dose

SMILES: COc1ccc(C(=O)NCC(=O)O)cc1OC [3,4-dimethoxybenzoylglycine]
- urinary metabolite of ME, share of the dose [5]: 30 % of the dose

SMILES: COc1ccc(C=CC(=O)NCC(=O)O)cc1OC [3,4-dimethoxycinnamoylglycine]
- urinary metabolite of ME, share of the dose [5]: 24 % of the dose

SMILES: COc1ccc(C(O)CC(=O)O)cc1OC (stereo not drawn) [3-hydroxy-3-(3,4-dimethoxyphenyl)propionic acid]
- urinary metabolite of ME, share of the dose [5]: 2 % of the dose

SMILES: COc1ccc(C=CCO)cc1OC [3′-hydroxy-MIE, 3′-hydroxymethylisoeugenol]
- contribution of the metabolite to the metabolism of ME (sum of all metabolites) [2]: 10.4–42.4%
- contribution of the metabolite to ME metabolism calculated from Vmax values [3]: 10.3–12.9%
- share of the dose excreted as urinary metabolites that appeared to be formed via 3′-hydroxy-MIE ([5]; rats, ME 200 mg/kg): 62 % of the dose
- share of the urinary metabolites that appeared to be formed via 3′-hydroxy-MIE ([5]; rats, ME 200 mg/kg): 65%

SMILES: COc1ccc(/C=C/C=O)cc1OC [3′-oxo-MIE]
- effect on human topoisomerase I activity in vitro (human topoisomerase I): inhibit
- contribution of the metabolite to the metabolism of ME (sum of all metabolites) [2]: 0–6.8%

SMILES: C=CCc1cc(OC)c(OC)cc1O [6-hydroxy-ME]
- contribution of 6-hydroxy-ME to the metabolism of ME in human liver microsomes [6]: 0–3.4%
- contribution of the metabolite to the metabolism of ME (sum of all metabolites) [2]: 0–27.4%
- contribution of the metabolite to ME metabolism calculated from Vmax values [3]: 3.9–4.7%
- urinary metabolite of ME, share of the dose [5]: 2 % of the dose

SMILES: COc1ccc(C=CCSC[C@H](NC(C)=O)C(=O)O)cc1OC [E-3′-MEMA, N-acetyl-S-[3′-(3,4-dimethoxyphenyl)allyl]-L-cysteine]
- total amount of E-3′-MEMA excreted, range among 12 participants ([7]; 1.7 mg ME in basil pesto): 3–274 ng/person
- interindividual variability of E-3′-MEMA excretion, factor between highest and lowest values ([7]; 12 participants): ~80
- E-3′-MEMA ratio of ME intake ([7]; individual participant, urine 0–48 h after 100 g basil pesto containing 1.7 mg ME): 33 ppm and 20 ppm and 85 ppm and 14 ppm and 1 ppm and 2 ppm and 4 ppm and 16 ppm and 6 ppm and 11 ppm
- E-3′-MEMA total urinary excretion ([7]; individual participant, urine 0–48 h after 100 g basil pesto containing 1.7 mg ME, sum of all samples with concentration > LOD): 105 ng and 63 ng and 274 ng and 44 ng and 3 ng and 6 ng and 12 ng and 51 ng and 18 ng and 36 ng and 20 ng and 52 ng

SMILES: C=CCc1ccc(O)c(OC)c1 [Eugenol, eugenol]
- urinary metabolite of ME in urine treated with glucuronidase/sulfatase, share of the dose [5]: 7 % of the dose

SMILES: C=CCc1ccc(OC)c(OC)c1 [ME, Methyleugenol]
- share of the dose of ME converted via 1′-sulfooxy-ME to 3′-hydroxy-MIE (suggested) [8]: 14.3–41.7%
- reduction of DNA adduct formation by ME in mouse liver by genetic knockout of SULT1A1 (DNA [4]; mouse, in vivo): 99%
- half-life of elimination of ME from serum [9]: about 90 min
- time of peak serum levels of ME after the meal [9]: 5 min
- contribution of 1′-hydroxylation to hepatic ME metabolism at low substrate concentration (human CYPs): 38.4%
- contribution of 2′,3′-epoxidation to hepatic ME metabolism at low substrate concentration (human CYPs): 58.8%
- induction of UDS by ME in the presence of the SULT1 inhibitor pentachlorophenol [10]: fully suppressed

SMILES: COc1ccc(C=CCNc2nc3c(ncn3[C@H]3C[C@H](O)[C@@H](CO)O3)c(=O)[nH]2)cc1OC [N^2-(methylisoeugenol-3′-yl)-2′-deoxyguanosine]
- human lung samples with DNA adducts present (DNA [11]): 10 out of 10
- human liver samples with DNA adducts present (DNA [11]; surgical human liver samples): 150 out of 151

SMILES: C=CCc1ccc(OC)c(O)c1 [chavibetol]
- urinary metabolite of ME in urine treated with glucuronidase/sulfatase, share of the dose [5]: 4 % of the dose

SMILES: COc1ccc(C=CCSC[C@H](NC(C)=O)C(=O)O)cc1 [mercapturic acid of estragole, N-acetyl-S-[3′-(4-methoxyphenyl)allyl]-L-Cys]
- urinary excretion of the mercapturic acid as share of intake [12]: 13.2 ppm
